Experimental findings from ChEMBL document CHEMBL1144253, “Pyrimidine containing RSV fusion inhibitors” (Bioorg Med Chem Lett, 2005) are described below.

Assay type in all cases: functional, cell-based
In one experiment the test system is Vero. The experiment in a line: Inhibitory concentration against herpes simplex 1 strain Patton in vero cells. Particulars: Chlorocebus sabaeus.
The subject of experiment [1] is HFF. Put plainly: Inhibitory concentration against human cytomegalovirus strain Ad169 in human foreskin fibroblasts.
Experiment [2] relates to HFF. The experiment in a line: Inhibitory concentration against human respiratory syncytial virus strain A2 in human foreskin fibroblasts.

pIC50: −log10 of the molar value.

The pIC50 is −log10 of the IC50, conventionally taken in molar units. As to `NC(=O)CN(CC(N)=O)S(=O)(=O)c1cccc(Nc2nc(Cl)cc(Nc3ccc(-c4ccc(Nc5cc(Cl)nc(Cl)n5)cc4S(=O)(=O)O)c(S(=O)(=O)O)c3)n2)c1`, the pIC50 in the experiment on Vero was 4.33; in the experiment on HFF [1], 4.60; with HFF [2], 4.78.

In the experiment on HFF [2], `NC(=O)CCCN(CCCC(N)=O)S(=O)(=O)c1cccc(Nc2nc(Nc3cccc(S(=O)(=O)N(CCCC(N)=O)CCCC(N)=O)c3)nc(Nc3ccc(-c4ccc(Nc5nc(Nc6cccc(S(=O)(=O)N(CCCC(N)=O)CCCC(N)=O)c6)nc(Nc6cccc(S(=O)(=O)N(CCCC(N)=O)CCCC(N)=O)c6)n5)cc4S(=O)(=O)O)c(S(=O)(=O)O)c3)n2)c1` gave a pIC50 of 7.00.

Consider `O=S(=O)(O)c1cc(Nc2nc(Nc3cccc(S(=O)(=O)N(CCO)CCO)c3)nc(Nc3cccc(S(=O)(=O)N(CCO)CCO)c3)n2)ccc1-c1ccc(Nc2nc(Nc3cccc(S(=O)(=O)N(CCO)CCO)c3)nc(Nc3cccc(S(=O)(=O)N(CCO)CCO)c3)n2)cc1S(=O)(=O)O`, for which the pIC50 is 4.83 in the experiment with Vero, 5.64 with HFF [1] and 7.05 in the experiment with HFF [2].

As to `NC(=O)CN(CC(N)=O)S(=O)(=O)c1cccc(Nc2cc(Nc3ccc(-c4ccc(Nc5cc(Nc6cccc(S(=O)(=O)N(CC(N)=O)CC(N)=O)c6)nc(Nc6cccc(S(=O)(=O)N(CC(N)=O)CC(N)=O)c6)n5)cc4S(=O)(=O)O)c(S(=O)(=O)O)c3)nc(Cl)n2)c1`, the pIC50 in the experiment with Vero is 4.72; in the experiment with HFF [1], 5.15; in the experiment on HFF [2], 5.74.

`NC(=O)CCN(CCC(N)=O)S(=O)(=O)c1cccc(Nc2nc(Cl)nc(Nc3ccc(-c4ccc(Nc5nc(Nc6cccc(S(=O)(=O)N(CCC(N)=O)CCC(N)=O)c6)nc(Nc6cccc(S(=O)(=O)N(CCC(N)=O)CCC(N)=O)c6)n5)cc4S(=O)(=O)O)c(S(=O)(=O)O)c3)n2)c1`: the pIC50 in the experiment on HFF [1] is 4.77; with HFF [2], 6.60.

As to `NC(=O)CCN(CCC(N)=O)S(=O)(=O)c1cccc(Nc2nc(Nc3cccc(S(=O)(=O)N(CCC(N)=O)CCC(N)=O)c3)nc(Nc3ccc(-c4ccc(Nc5nc(Nc6cccc(S(=O)(=O)N(CCC(N)=O)CCC(N)=O)c6)nc(Nc6cccc(S(=O)(=O)N(CCC(N)=O)CCC(N)=O)c6)n5)cc4S(=O)(=O)O)c(S(=O)(=O)O)c3)n2)c1`, the pIC50 in the experiment with HFF [2] is 7.10.

In the experiment on HFF [2], `NC(=O)CCN(CCC(N)=O)S(=O)(=O)c1cccc(Nc2nc(Nc3cccc(S(=O)(=O)N(CCC(N)=O)CCC(N)=O)c3)nc(Nc3ccc(/C=C/c4ccc(Nc5nc(Nc6cccc(S(=O)(=O)N(CCC(N)=O)CCC(N)=O)c6)nc(Nc6cccc(S(=O)(=O)N(CCC(N)=O)CCC(N)=O)c6)n5)cc4S(=O)(=O)O)c(S(=O)(=O)O)c3)n2)c1` gave a pIC50 of 6.82.

As for `NC(=O)CN(CC(N)=O)S(=O)(=O)c1cccc(Nc2cc(Nc3ccc(-c4ccc(Nc5nc(Nc6cccc(S(=O)(=O)N(CC(N)=O)CC(N)=O)c6)ncc5Cl)cc4S(=O)(=O)O)c(S(=O)(=O)O)c3)nc(Cl)n2)c1`, the figures for the negative logarithm of the IC50 (pIC50) with Vero, in the experiment on HFF [1] and in the experiment on HFF [2] were 4.60, 4.86 and 5.46, respectively.

In the case of `O=S(=O)(O)c1cc(Nc2cc(Nc3cccc(S(=O)(=O)N(CCO)CCO)c3)nc(Nc3cccc(S(=O)(=O)N(CCO)CCO)c3)n2)ccc1-c1ccc(Nc2cc(Nc3cccc(S(=O)(=O)N(CCO)CCO)c3)nc(Nc3cccc(S(=O)(=O)N(CCO)CCO)c3)n2)cc1S(=O)(=O)O`, the pIC50 was 4.77 in the experiment on Vero, 5.36 in the experiment with HFF [1] and 6.09 in the experiment with HFF [2].

As to `NC(=O)CN(CC(N)=O)S(=O)(=O)c1cccc(Nc2nc(Nc3cccc(S(=O)(=O)N(CC(N)=O)CC(N)=O)c3)nc(Nc3ccc(-c4ccc(Nc5nc(Nc6cccc(S(=O)(=O)N(CC(N)=O)CC(N)=O)c6)nc(Nc6cccc(S(=O)(=O)N(CC(N)=O)CC(N)=O)c6)n5)cc4S(=O)(=O)O)c(S(=O)(=O)O)c3)n2)c1` [RF-1461], the negative logarithm of the IC50 (pIC50) with Vero was 5.11; in the experiment with HFF [1], 5.59; in the experiment with HFF [2], 7.30.
